In ChEMBL document CHEMBL4190350, “Synthesis, antimicrobial, antiquorum-sensing, antitumor and cytotoxic activities of new series of cyclopenta(hepta)[b]thiophene and fused cyclohepta[b]thiophene analogs” (Eur J Med Chem, 2017):
≈ marks a conversion by molar mass, not a printed value. Calls of active or inactive are those of the source. The rule behind the calls is not given here.

Key:
HT-29 = assay: Antitumor activity against human HT-29 cells assessed as inhibition of cell viability incubated for 48 hrs by MTT assay; format: functional, cell-based; details: HT-29, 48 h
Ehrlich [1] = assay: Antitumor activity against mouse EAC cells implanted in Swiss albino mouse assessed as reduction in tumor cell count at 0.5 mg for 9 days (reference value: 9.85 ml); format: functional, cell-based
Ehrlich [2] = assay: Antitumor activity against mouse EAC cells implanted in Swiss albino mouse assessed as increase in life span at 0.5 mg for 9 days relative to untreated control; format: functional
Staphylococcus aureus [3] = assay: Antimicrobial activity against Staphylococcus aureus incubated for 24 hrs by serial dilution method; format: functional
Aspergillus fumigatus [4] = assay: Antimicrobial activity against Aspergillus fumigatus incubated for 48 hrs by disc diffusion assay; format: functional
Escherichia coli [5] = assay: Antimicrobial activity against Escherichia coli incubated for 24 hrs by serial dilution method; format: functional
HepG2 = assay: Antitumor activity against human HepG2 cells assessed as inhibition of cell viability incubated for 48 hrs by MTT assay; format: functional, cell-based; details: HepG2, 48 h
Mus musculus [6] = assay: Toxicity in mouse EAC cells implanted Swiss albino mouse assessed as hemoglobin level at 0.5 mg for 9 days (reference value: 8.15 g/dl); format: organism-based; details: in vivo, 216 h
Mus musculus [7] = assay: Toxicity in mouse EAC cells implanted Swiss albino mouse assessed as RBC count at 0.5 mg for 9 days (reference value: 3.69 10^6/mm3); format: organism-based; details: in vivo, 216 h
WI-38 = assay: Cytotoxicity in human WI38 cells assessed as inhibition of cell viability incubated for 48 hrs by MTT assay; format: cell-based; details: WI-38, 48 h
MCF7 = assay: Antitumor activity against human MCF7 cells assessed as inhibition of cell viability incubated for 48 hrs by MTT assay; format: functional, cell-based; details: MCF7, 48 h
Candida albicans [8] = assay: Antimicrobial activity against Candida albicans incubated for 48 hrs by disc diffusion assay; format: functional
Bacillus cereus [9] = assay: Antimicrobial activity against Bacillus cereus incubated for 24 hrs by serial dilution method; format: functional
[10] = system: Chromobacterium violaceum; assay: Inhibition of quorum sensing system in Chromobacterium violaceum ATCC 12472 assessed as inhibition of violacein production at 5 mg/mL incubated for 48 hrs
Mus musculus [11] = assay: Toxicity in mouse EAC cells implanted Swiss albino mouse assessed as WBC count at 0.5 mg for 9 days (reference value: 23.96 10^3/mm3); format: organism-based; details: in vivo, 216 h
[12] = Binding affinity to DNA (unknown origin) assessed as reduction in absorption maxima for methyl green/DNA complex incubated for 24 hrs by methyl green/DNA displacement assay
Staphylococcus aureus [13] = assay: Antimicrobial activity against Staphylococcus aureus incubated for 24 hrs by disc diffusion assay; format: functional
Ehrlich [14] = assay: Antitumor activity against mouse EAC cells implanted in Swiss albino mouse assessed as mean survival time at 0.5 mg for 9 days (reference value: 14.5 day); format: functional
Escherichia coli [15] = assay: Antimicrobial activity against Escherichia coli incubated for 24 hrs by disc diffusion assay; format: functional
Ehrlich [16] = assay: Antitumor activity against mouse EAC cells implanted in Swiss albino mouse assessed as tumor volume at 0.5 mg for 9 days (reference value: 9.85 ml); format: functional
Bacillus cereus [17] = assay: Antimicrobial activity against Bacillus cereus incubated for 24 hrs by disc diffusion assay; format: functional
Aspergillus fumigatus [18] = assay: Antimicrobial activity against Aspergillus fumigatus incubated for 48 hrs by serial dilution method; format: functional
Candida albicans [19] = assay: Antimicrobial activity against Candida albicans incubated for 48 hrs by serial dilution method; format: functional

Compound: CCOC(=O)/C(=N/Nc1sc2c(c1C(=O)OCC)CCCCC2)C(C)=O
- IC50 (HT-29): 4.5 µM
- Activity (Ehrlich [1]): Active
- ILS (Ehrlich [2]): 210.34%
- MIC (Staphylococcus aureus [3]): 205 µM (≈ 78.1 µg/mL)
- diameter of the inhibition zone (DIZ) (Aspergillus fumigatus [4]): <2 mm
- MIC (Escherichia coli [5]): 205 µM (≈ 78.1 µg/mL)
- IC50 (HepG2): 9.1 µM
- Activity (Mus musculus [6]): 13.15 g/dL
- Activity (Mus musculus [7]): 5.51 ×10⁶ /mm3
- IC50 (WI-38): 44.8 µM
- IC50 (MCF7): 5.8 µM
- diameter of the inhibition zone (DIZ) (Candida albicans [8]): <2 mm
- MIC (Bacillus cereus [9]): 411 µM (≈ 156 µg/mL)
- INH [10]: < 2 mm
- Activity (Mus musculus [11]): 7.11 ×10³ /mm3
- IC50 [12]: 40.6 µM
- diameter of the inhibition zone (DIZ) (Staphylococcus aureus [13]): 32 mm
- MST (Ehrlich [14]): 45 days
- diameter of the inhibition zone (DIZ) (Escherichia coli [15]): 22 mm
- Activity (Ehrlich [16]): 1.97 mL
- diameter of the inhibition zone (DIZ) (Bacillus cereus [17]): 24 mm

Compound: NNC(=O)c1c(NN=C2C(N)=NN=C2N)sc2c1CCCCC2
- IC50 (HT-29): 30.5 µM
- MIC (Staphylococcus aureus [3]): 234 µM (≈ 78.1 µg/mL)
- diameter of the inhibition zone (DIZ) (Aspergillus fumigatus [4]): 32 mm
- MIC (Aspergillus fumigatus [18]): 234 µM
- MIC (Escherichia coli [5]): 467 µM (≈ 156 µg/mL)
- IC50 (HepG2): 21.6 µM
- IC50 (MCF7): 23.2 µM
- diameter of the inhibition zone (DIZ) (Candida albicans [8]): 24 mm
- MIC (Bacillus cereus [9]): 234 µM (≈ 78.1 µg/mL)
- INH [10]: 12 mm
- IC50 [12]: 52.2 µM
- diameter of the inhibition zone (DIZ) (Staphylococcus aureus [13]): 28 mm
- MIC (Candida albicans [19]): 467 µM (≈ 156 µg/mL)
- diameter of the inhibition zone (DIZ) (Escherichia coli [15]): 19 mm
- diameter of the inhibition zone (DIZ) (Bacillus cereus [17]): 30 mm

Compound: CCOC(=O)/C(=N/Nc1sc2c(c1C(=O)OCC)CCC2)C(C)=O
- IC50 (HT-29): 8.8 µM
- Activity (Ehrlich [1]): Active
- ILS (Ehrlich [2]): 205.52%
- diameter of the inhibition zone (DIZ) (Aspergillus fumigatus [4]): 16 mm
- MIC (Aspergillus fumigatus [18]): 887 µM
- IC50 (HepG2): 16.1 µM
- Activity (Mus musculus [6]): 13.1 g/dL
- Activity (Mus musculus [7]): 5.49 ×10⁶ /mm3
- IC50 (WI-38): 25.3 µM
- IC50 (MCF7): 9.7 µM
- diameter of the inhibition zone (DIZ) (Candida albicans [8]): 5 mm
- INH [10]: 6 mm
- Activity (Mus musculus [11]): 7.56 ×10³ /mm3
- IC50 [12]: 65.7 µM
- diameter of the inhibition zone (DIZ) (Staphylococcus aureus [13]): <2 mm
- MST (Ehrlich [14]): 44.3 days
- diameter of the inhibition zone (DIZ) (Escherichia coli [15]): 4 mm
- Activity (Ehrlich [16]): 2.32 mL
- diameter of the inhibition zone (DIZ) (Bacillus cereus [17]): 7 mm

Compound: OC(Cn1cncn1)(Cn1cncn1)c1ccc(F)cc1F [FLUCONAZOLE]
- diameter of the inhibition zone (DIZ) (Aspergillus fumigatus [4]): <2 mm
- MIC (Aspergillus fumigatus [18]): > 2500 µg/mL
- diameter of the inhibition zone (DIZ) (Candida albicans [8]): 22 mm
- MIC (Candida albicans [19]): 4080 µM (≈ 1250 µg/mL)

Compound: CC(=O)C1(C(C)=O)N=Nc2sc3c(c2C1=O)CCCCC3
- IC50 (HT-29): 12.8 µM
- ILS (Ehrlich [2]): 148.27%
- diameter of the inhibition zone (DIZ) (Aspergillus fumigatus [4]): <2 mm
- IC50 (HepG2): 20.7 µM
- Activity (Mus musculus [6]): 12.04 g/dL
- Activity (Mus musculus [7]): 4.81 ×10⁶ /mm3
- IC50 (WI-38): 47.6 µM
- IC50 (MCF7): 14.9 µM
- diameter of the inhibition zone (DIZ) (Candida albicans [8]): 19 mm
- INH [10]: 3 mm
- Activity (Mus musculus [11]): 9.11 ×10³ /mm3
- IC50 [12]: 45.5 µM
- diameter of the inhibition zone (DIZ) (Staphylococcus aureus [13]): <2 mm
- MST (Ehrlich [14]): 36 days
- MIC (Candida albicans [19]): 513 µM (≈ 156 µg/mL)
- diameter of the inhibition zone (DIZ) (Escherichia coli [15]): <2 mm
- Activity (Ehrlich [16]): 3.3 mL
- diameter of the inhibition zone (DIZ) (Bacillus cereus [17]): 7 mm

Compound: CCOC(=O)c1c(NN=C(C(C)=O)C(C)=O)sc2c1CCC2
- IC50 (HT-29): 18.7 µM
- ILS (Ehrlich [2]): 172.35%
- MIC (Staphylococcus aureus [3]): 485 µM (≈ 156 µg/mL)
- diameter of the inhibition zone (DIZ) (Aspergillus fumigatus [4]): 26 mm
- MIC (Aspergillus fumigatus [18]): 485 µM
- MIC (Escherichia coli [5]): 485 µM (≈ 156 µg/mL)
- IC50 (HepG2): 13.8 µM
- Activity (Mus musculus [6]): 12.23 g/dL
- Activity (Mus musculus [7]): 4.95 ×10⁶ /mm3
- IC50 (WI-38): 33.5 µM
- IC50 (MCF7): 7.6 µM
- diameter of the inhibition zone (DIZ) (Candida albicans [8]): 23 mm
- MIC (Bacillus cereus [9]): 485 µM (≈ 156 µg/mL)
- INH [10]: 11 mm
- Activity (Mus musculus [11]): 8.76 ×10³ /mm3
- IC50 [12]: 42.2 µM
- diameter of the inhibition zone (DIZ) (Staphylococcus aureus [13]): 22 mm
- MST (Ehrlich [14]): 39.5 days
- MIC (Candida albicans [19]): 485 µM (≈ 156 µg/mL)
- diameter of the inhibition zone (DIZ) (Escherichia coli [15]): 21 mm
- Activity (Ehrlich [16]): 3.13 mL
- diameter of the inhibition zone (DIZ) (Bacillus cereus [17]): 26 mm

Compound: CCOC(=O)c1c(NN=C(C(C)=O)C(C)=O)sc2c1CCCCC2
- IC50 (HT-29): 53.3 µM
- diameter of the inhibition zone (DIZ) (Aspergillus fumigatus [4]): 30 mm
- MIC (Aspergillus fumigatus [18]): 223 µM
- IC50 (HepG2): 30.6 µM
- IC50 (MCF7): 21.4 µM
- diameter of the inhibition zone (DIZ) (Candida albicans [8]): 20 mm
- INH [10]: 4 mm
- IC50 [12]: 37.1 µM
- diameter of the inhibition zone (DIZ) (Staphylococcus aureus [13]): 8 mm
- MIC (Candida albicans [19]): 223 µM (≈ 78.1 µg/mL)
- diameter of the inhibition zone (DIZ) (Escherichia coli [15]): 6 mm
- diameter of the inhibition zone (DIZ) (Bacillus cereus [17]): 14 mm

Compound: CO/N=C(\C(=O)N[C@@H]1C(=O)N2C(C(=O)O)=C(COC(C)=O)CS[C@H]12)c1csc(N)n1 [CEFOTAXIME]
- MIC (Staphylococcus aureus [3]): 32.9 µM (≈ 15 µg/mL)
- MIC (Escherichia coli [5]): 13.6 µM (≈ 6.19 µg/mL)

Compound: CC1=NN=C(C)C1=NNc1sc2c(c1C(=O)NN)CCCCC2
- IC50 (HT-29): 5.7 µM
- Activity (Ehrlich [1]): Active
- ILS (Ehrlich [2]): 227.55%
- diameter of the inhibition zone (DIZ) (Aspergillus fumigatus [4]): <2 mm
- IC50 (HepG2): 6.9 µM
- Activity (Mus musculus [6]): 13.23 g/dL
- Activity (Mus musculus [7]): 5.57 ×10⁶ /mm3
- IC50 (WI-38): 33.2 µM
- IC50 (MCF7): 4.1 µM
- diameter of the inhibition zone (DIZ) (Candida albicans [8]): <2 mm
- INH [10]: 5 mm
- Activity (Mus musculus [11]): 6.9 ×10³ /mm3
- IC50 [12]: 27.8 µM
- diameter of the inhibition zone (DIZ) (Staphylococcus aureus [13]): <2 mm
- MST (Ehrlich [14]): 47.5 days
- diameter of the inhibition zone (DIZ) (Escherichia coli [15]): <2 mm
- Activity (Ehrlich [16]): 1.85 mL
- diameter of the inhibition zone (DIZ) (Bacillus cereus [17]): <2 mm

Compound: CC1(C)S[C@@H]2[C@H](NC(=O)[C@H](N)c3ccccc3)C(=O)N2[C@H]1C(=O)O [AMPICILLIN]
- MIC (Staphylococcus aureus [3]): 894 µM (≈ 313 µg/mL)
- MIC (Escherichia coli [5]): 55.9 µM (≈ 19.5 µg/mL)
- MIC (Bacillus cereus [9]): 3580 µM (≈ 1250 µg/mL)
- diameter of the inhibition zone (DIZ) (Staphylococcus aureus [13]): 20 mm
- diameter of the inhibition zone (DIZ) (Escherichia coli [15]): 28 mm
- diameter of the inhibition zone (DIZ) (Bacillus cereus [17]): 12 mm

Compound: CCOC(=O)c1c(NN=C(C#N)C#N)sc2c1CCCCC2
- IC50 (HT-29): 7.6 µM
- ILS (Ehrlich [2]): 193.1%
- MIC (Staphylococcus aureus [3]): 988 µM (≈ 312 µg/mL)
- diameter of the inhibition zone (DIZ) (Aspergillus fumigatus [4]): 9 mm
- IC50 (HepG2): 10.8 µM
- Activity (Mus musculus [6]): 12.54 g/dL
- Activity (Mus musculus [7]): 5.09 ×10⁶ /mm3
- IC50 (WI-38): 53.5 µM
- IC50 (MCF7): 8.2 µM
- diameter of the inhibition zone (DIZ) (Candida albicans [8]): 11 mm
- INH [10]: 9 mm
- Activity (Mus musculus [11]): 8.18 ×10³ /mm3
- IC50 [12]: 55.3 µM
- diameter of the inhibition zone (DIZ) (Staphylococcus aureus [13]): 19 mm
- MST (Ehrlich [14]): 42.5 days
- diameter of the inhibition zone (DIZ) (Escherichia coli [15]): 7 mm
- Activity (Ehrlich [16]): 2.7 mL
- diameter of the inhibition zone (DIZ) (Bacillus cereus [17]): 11 mm
